Source: patent publication US20260026504A1, “COMPOUND […] STRUCTURE, APPLICATION, AND INSECTICIDE” (Anhui Shengfeng Biochemical Co., Ltd, priority 2022, published 2026)
Like-named read-outs stand apart in the source and are kept apart here.

System: diamondback moth (Plutella xylostella) second instar larvae
Test: Toxicity to diamondback moth larvae by the leaf-dipping method
Format: in vivo
Conditions: corrected mortality grade, 1 ppm, cabbage leaf dip; for mortality at 1 ppm: Plutella xylostella, in Brassica oleracea, foliar
Protocol: Determining the toxicity activity of part of compounds on diamondback moth (Plutella xylostella) instar larvae by the leafdipping method.
The test agents of the compounds in Table 2 were weighed out accurately with an electronic analytical balance, and the original drug was dissolved in a 10000 ppm solution with dimethyl sulfoxide as the solvent and then diluted with 0.1% of Triton solution to 1 ppm and 0.25 ppm solutions. Taking the cabbage not contacted with the liquid medicine, and cutting the leaves into 6 cm-diameter circular leaves. Soaking the leaves in the prepared liquid medicine for 15 seconds, taking out and drying, and placing the leaves into 6 cm culture dishes, wherein 1 cabbage leaf is placed in each culture dish. The same standard second instar larvae were placed in petri dishes with 10 heads per dish and 4 replicates per concentration for a total of 40 heads. After inoculation, the culture dish is placed in a constant-temperature culture chamber with the temperature of 25±1° C. and the illumination period of 16 (D) to 8 (L) h, and the number of dead and live larvae is investigated after 48 h and 72 h. A blank and a control of compound K1 and compound K2 were also provided.
The mortality is calculated according to the following formula 1, then the corrected mortality is calculated according to the formula 2, and finally the classification is carried out according to the corrected mortality value and the rating standard shown in the table 2, and the specific results are shown in the tables 3 and 4.
mortality %=(number of dead insects/total number of insects)×100% Equation 1;
corrected mortality %=[(treatment-control mortality)/(1-control mortality)]×100% Equation 2.

[1] = 72 h, 72 h, read-out: mortality (1 ppm) 72 h
[2] = 48 h, 48 h, read-out: mortality (1 ppm) 48 h

CCC(=O)n1nc(C)c(NC(=O)c2ccc(C3=NOC(c4cc(Cl)c(F)c(Cl)c4)(C(F)(F)F)C3)cc2C)c1C (centres unmarked) [Compound 169]
mortality at 1 ppm [1]: 80 to 90%

Cc1cc(C2=NOC(c3cc(Cl)cc(Cl)c3)(C(F)(F)F)C2)ccc1C(=O)Nc1c(C)nn(Cc2ccccc2)c1C (centres unmarked) [Compound 104]
mortality at 1 ppm [1]: 50 to 70%

Cc1cc(C2=NOC(c3cc(Cl)c(F)c(Cl)c3)(C(F)(F)F)C2)ccc1C(=O)Nc1c(C)n[nH]c1C (centres unmarked) [Compound 158]
mortality at 1 ppm [2]: 50 to 70% | mortality at 1 ppm [1]: 90 to 100%

Cc1cc(C2=NOC(c3cc(Cl)cc(Cl)c3)(C(F)(F)F)C2)ccc1C(=O)Nc1cnn(CCCF)c1 (centres unmarked) [Compound 11]
mortality at 1 ppm [2]: 50 to 70% | mortality at 1 ppm [1]: 100%

Cc1cc(C2=NOC(c3cc(Cl)c(F)c(Cl)c3)(C(F)(F)F)C2)ccc1C(=O)Nc1cnn(C(=O)N(C)C)c1 (centres unmarked) [Compound 149]
mortality at 1 ppm [2]: 100% | mortality at 1 ppm [1]: 100%

Cc1cc(C2=NOC(c3cc(Cl)c(F)c(Cl)c3)(C(F)(F)F)C2)ccc1C(=O)Nc1cnn(CC2CC2)c1 (centres unmarked) [Compound 133]
mortality at 1 ppm [2]: 80 to 90% | mortality at 1 ppm [1]: 100%

CCCS(=O)(=O)n1cc(NC(=O)c2ccc(C3=NOC(c4cc(Cl)c(F)c(Cl)c4)(C(F)(F)F)C3)cc2C)cn1 (centres unmarked) [Compound 153]
mortality at 1 ppm [2]: 70 to 80% | mortality at 1 ppm [1]: 90 to 100%

Cc1cc(C2=NOC(c3cc(Cl)c(F)c(Cl)c3)(C(F)(F)F)C2)ccc1C(=O)Nc1cnn(C2CCCC2)c1 (centres unmarked) [Compound 131]
mortality at 1 ppm [2]: 80 to 90% | mortality at 1 ppm [1]: 100%

Cc1cc(C2=NOC(c3cc(Cl)cc(Cl)c3)(C(F)(F)F)C2)ccc1C(=O)Nc1cnn(CC(F)F)c1 (centres unmarked) [Compound 8]
mortality at 1 ppm [2]: 50 to 70% | mortality at 1 ppm [1]: 80 to 90%

Cc1cc(C2=NOC(c3cc(Cl)c(F)c(Cl)c3)(C(F)(F)F)C2)ccc1C(=O)Nc1cnn(C)c1 (centres unmarked) [Compound 124]
mortality at 1 ppm [2]: 80 to 90% | mortality at 1 ppm [1]: 100%

Cc1cc(C2=NOC(c3cc(Cl)c(F)c(Cl)c3)(C(F)(F)F)C2)ccc1C(=O)Nc1c(C)nn(C)c1C (centres unmarked) [Compound 160]
mortality at 1 ppm [2]: 50 to 70% | mortality at 1 ppm [1]: 70 to 80%

CCCC(=O)n1cc(NC(=O)c2ccc(C3=NOC(c4cc(Cl)cc(Cl)c4)(C(F)(F)F)C3)cc2C)cn1 (centres unmarked) [Compound 60]
mortality at 1 ppm [1]: 50 to 70%

Cc1cc(C2=NOC(c3cc(Cl)c(F)c(Cl)c3)(C(F)(F)F)C2)ccc1C(=O)Nc1cn[nH]c1 (centres unmarked) [Compound 123]
mortality at 1 ppm [2]: 90 to 100% | mortality at 1 ppm [1]: 100%

CC(=O)n1nc(C)c(NC(=O)c2ccc(C3=NOC(c4cc(Cl)c(F)c(Cl)c4)(C(F)(F)F)C3)cc2C)c1C (centres unmarked) [Compound 168]
mortality at 1 ppm [1]: 90 to 100%

CCn1cc(NC(=O)c2ccc(C3=NOC(c4cc(Cl)cc(Cl)c4)(C(F)(F)F)C3)cc2C)cn1 (centres unmarked) [Compound 3]
mortality at 1 ppm [2]: 70 to 80% | mortality at 1 ppm [1]: 90 to 100%

CCC(CC)n1nc(C)c(NC(=O)c2ccc(C3=NOC(c4cc(Cl)cc(Cl)c4)(C(F)(F)F)C3)cc2C)c1C (centres unmarked) [Compound 102]
mortality at 1 ppm [1]: 50 to 70%

Cc1cc(C2=NOC(c3cc(Cl)c(F)c(Cl)c3)(C(F)(F)F)C2)ccc1C(=O)Nc1cnn(C2CCCCC2)c1 (centres unmarked) [Compound 137]
mortality (1 ppm) 72 h (72 h): C (80% to less than 90%)

CCC(=O)n1cc(NC(=O)c2ccc(C3=NOC(c4cc(Cl)cc(Cl)c4)(C(F)(F)F)C3)cc2C)cn1 (centres unmarked) [Compound 59]
mortality at 1 ppm [1]: 50 to 70%

Cc1cc(C2=NOC(c3cc(Cl)cc(Cl)c3)(C(F)(F)F)C2)ccc1C(=O)Nc1cnn(-c2cccc(F)c2)c1 (centres unmarked) [Compound 47]
mortality at 1 ppm [1]: 50 to 70%

CCn1nc(C)c(NC(=O)c2ccc(C3=NOC(c4cc(Cl)cc(Cl)c4)(C(F)(F)F)C3)cc2C)c1C (centres unmarked) [Compound 97]
mortality at 1 ppm [1]: 80 to 90%

Cc1cc(C2=NOC(c3cc(Cl)cc(Cl)c3)(C(F)(F)F)C2)ccc1C(=O)Nc1cnn(S(=O)(=O)C(C)C)c1 (centres unmarked) [Compound 72]
mortality at 1 ppm [1]: 50 to 70%

Cc1cc(C2=NOC(c3cc(Cl)c(F)c(Cl)c3)(C(F)(F)F)C2)ccc1C(=O)Nc1cnn(Cc2ccccc2)c1 (centres unmarked) [Compound 139]
mortality at 1 ppm [1]: 50 to 70%

Cc1cc(C2=NOC(c3cc(Cl)c(F)c(Cl)c3)(C(F)(F)F)C2)ccc1C(=O)Nc1cnn(C2CCCCC2)c1 (centres unmarked) [Compound 132]
mortality at 1 ppm [2]: 50 to 70% | mortality at 1 ppm [1]: 100%
